Assay in all cases: inhibition of tumour cell growth, NCI panel, 48 h
Assay [1] relates to SW-620 colon.
In assay [2] the test system is NCI-H460 lung.
Assay [3] relates to COLO 205 colon.
In assay [4] the test system is NCI-H226 lung.
In assay [5] the test system is CCRF-CEM leukemia.
The subject of assay [6] is SN12C renal.
The test system of assay [7] is OVCAR-5 ovarian.
Assay [8] concerns HT29 colon.
In assay [9] the test system is SNB-75 CNS.

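Method: 48-hour compound exposure of cells in 96-well plates, five concentrations, linear interpolation of endpoints. The concentration for 50% growth inhibition is given as GI50. TGI denotes the concentration required for complete inhibition of growth.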

For `Cc1cc(O)c2c(c1)OC1(C)CCC3C(C)(C)CCCC34COC2C14` (stereo unspecified), the TGI in assay [1] is 30 µM; in assay [2], 30.6 µM; in assay [3] it was 29.9 µM; in assay [4], 31 µM; in [5], 42.7 µM; in [6], 30.8 µM. In addition, the TGI in assay [7] came to 29.5 µM.

For `COc1ccccc1/C=C(\NC(=O)c1ccccc1)c1nc2ccccc2[nH]1`, the TGI is > 100 µM in [1]; > 100 µM in assay [2]; > 100 µM in [8]; 80.3 µM in assay [3]; > 100 µM in assay [9]; > 100 µM in [5]. The TGI in assay [6] and in assay [7] was > 100 µM each time.

With `C/C(=C\c1ccccc1)C(=O)c1c(C)cc(C)cc1C`, the TGI in [1], in [2], in [8], in assay [3], in assay [4] and in assay [9] was > 100 µM throughout. The TGI in assay [5] and in assay [6] was > 100 µM throughout.

On to `C[C@]12CC[C@H](OC(=O)Nc3ccccc3)CC1=CC[C@@H]1C2CC[C@]2(C)/C(=N/OC(=O)Nc3ccccc3)CCC12` (stereo partly specified), for which the TGI in [1], in [2], in assay [8], in [3], in assay [9] and in assay [5] was > 100 µM each time. Besides, the TGI in assay [6] is 3.32 µM; in [7], > 100 µM.

On to `O=C(Cc1nc2ccccc2s1)C(=O)Nc1cccc(C(F)(F)F)c1`, for which the TGI in [1], in assay [2], in assay [8], in assay [3], in assay [4] and in assay [9] was > 100 µM each time. Further, the TGI in assay [5] and in assay [6] was > 100 µM each time.

Regarding `COC(OC)c1cccnc1C`, the TGI in assay [1], in [2], in [8], in [3], in [9] and in assay [5] was > 100 µM in each case. Moreover, the TGI in [6] and in assay [7] was > 100 µM in each case.

In the case of `c1ccc(N2CCN(CCN3CCc4c([nH]c5ccccc45)C3c3cccnc3)CC2)cc1` (stereo unspecified), the TGI was > 100 µM in assay [1]; > 100 µM in assay [2]; > 100 µM in assay [8]; 9.7 µM in assay [9]; > 100 µM in assay [5]; > 100 µM in assay [6]. Further, in [7], the TGI is > 100 µM.

On to `O=C(O)C1CC2C=CCC(C2)C1` (stereo unspecified), for which the TGI in assay [1], in assay [2], in [8], in assay [3], in [4] and in assay [9] was > 100 µM throughout. Also, the TGI in [5] and in [7] was > 100 µM in each case.

In the case of `N.N.N.N.O=S([O-])[O-].[Co+3].[N-]=[N+]=[N-]`, the GI50 in assay [1] is > 100 µM; in assay [2], > 100 µM; in assay [8] it was > 100 µM; in assay [3] it was > 100 µM; in [9], 70.4 µM; in assay [5] it was > 100 µM. Also, the GI50 in assay [6] and in [7] was > 100 µM each time. Also, the TGI in assay [1], in assay [2], in assay [8], in assay [3], in [9] and in [5] was > 100 µM in each case. Also, the TGI in assay [6] and in assay [7] was > 100 µM throughout.

As for `CN(C)C(=S)/N=c1\ssc(=Nc2ccccc2)n1-c1ccccc1`, the TGI in assay [1] is > 100 µM; in assay [8], > 100 µM; in assay [4], 26.7 µM; in [9], 36.5 µM; in assay [5], > 100 µM; in [6], > 100 µM. The TGI in [7] is > 100 µM.

Turning to `C=C(c1ccccc1)c1cc2c(=O)[nH]ccc2n1C`, the TGI was > 100 µM in assay [1]; > 100 µM in assay [2]; 35.6 µM in [3]; 45.6 µM in assay [9]; > 100 µM in assay [5]; > 100 µM in [6]. Further, the TGI in [7] was > 100 µM.

For the compound `Nc1ccc(C(=O)N/C(=C\c2ccc3c(c2)OCO3)c2nc3ccccc3s2)cc1`, the TGI is 23.6 µM in assay [1]; 25.8 µM in [8]; 34.9 µM in [3]; 7.28 µM in assay [5]; 25.6 µM in assay [6]; 36.5 µM in assay [7].

As for `COC(=O)CCC(NC(=S)N/N=C(\C)c1cccs1)C(=O)OC` (stereo unspecified), the TGI in [1], in assay [2], in assay [8], in [3], in assay [4] and in assay [9] was > 100 µM in each case. For the same compound, the TGI in assay [6] and in assay [7] was > 100 µM each time.

Values taken from PubChem BioAssay (NCI).
